From US12152048B2, “Nitroxoline prodrug and use thereof” (Jiangsu Yahong Meditech Co., Ltd., priority 2018, dated 2024)
Converted amounts (≈) assume the structure as drawn.

Columns and labels:
[1] = Stability in monkey plasma; assay type: in vitro ADME
Source text: (§1) Experimental instruments: thermostatic shaker (SHA-B, Guohua Electric Appliance Co., Ltd.); centrifuge (5810R, Eppendorf); mass spectrometry (AP4000, Applied Biosystems, USA); liquid chromatography (LC-30AD, Shimadzu); sample injector (CTC Analytics AG System, CTC).
(§2) Test animals: plasma of human (batch number: BRH1343165), rat (batch number: RAT336728), mouse (batch number: MSE280000), dog (batch number: BGL99137) and monkey (batch number: PH-Monkey-20180821) are purchased from Shanghai Sixin Biological Technology Co., Ltd.
(§3) Experimental process: the compound of the present invention was dissolved in an organic solvent to obtain a 1 mM working solution. 3 μL of the working solution were added to 597 μL of pre-incubated human or rat plasma and mixed well. 50 μL of the solution were immediately taken out as the 0 minute sample. The remaining sample was incubated at 37° C., and 50 μL of sample were taken out at 15, 30, 60 and 120 minutes respectively. All the samples taken out were immediately processed to precipitate protein, and centrifuged to obtain a supermate for the determination of the compound concentration by LC/MS/MS.

[2] = Stability in rat liver microsome; settings: 2 μM, 37° C., 30 minutes
[3] = Stability in mouse liver microsome; assay type: in vitro ADME; settings: 2 μM, 37° C., 30 minutes
[4] = Determination of water solubility in phosphate buffer; assay type: physicochemical; settings: aqueous buffer, thermodynamic from solid; phosphate buffer pH 7.4, room temperature, 24 hours
Outline: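 Thermodynamic solubility: compound concentration measured by LC/MS/MS in the vacuum filtrate after 24 h shaking at room temperature of 2 mg powder in 500 μL phosphate buffer at pH 1.2, 4.5, 6.8 or 7.4.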

[5] = Stability in human plasma
[6] = Stability in plasma, overall conclusion (species not stated); settings: conclusion in words
[7] = Stability in dog plasma; assay type: in vitro ADME
Source text: as §1, §2, §3

[8] = Stability in human liver microsome; settings: 2 μM, 37° C., 30 minutes
[9] = Stability in rat plasma
[10] = Stability in dog liver microsome; settings: 2 μM, 37° C., 30 minutes
[11] = Stability in mouse plasma; assay type: in vitro ADME
Source text: as §1, §2, §3

[12] = Stability in liver microsome, overall conclusion (species not stated); assay type: in vitro ADME; settings: conclusion in words

## O=C(OCOc1ccc([N+](=O)[O-])c2cccnc12)N1CCOCC1 [Compound 7, (5-nitroquinolin-8-yloxy)methyl morpholine-4-carboxylate]
[1]; 0 minute
  Percentage of the compound remaining in plasma: 100.0%
[1]; 37° C., 15 minutes
  Percentage of the compound remaining in plasma: 96.5%
[1]; 37° C., 30 minutes
  Percentage of the compound remaining in plasma: 105.9%
[1]; 37° C., 60 minutes
  Percentage of the compound remaining in plasma: 99.0%
[1]; 37° C., 120 minutes
  Percentage of the compound remaining in plasma: 98.7%
[2]; with coenzyme
  Percentage of the compound remaining in rat liver microsome: 69.51%
[2]; without coenzyme
  Percentage of the compound remaining in rat liver microsome: 90.84%
[3]; with coenzyme
  Percentage of the compound remaining in mouse liver microsome: 55.15%
[3]; without coenzyme
  Percentage of the compound remaining in mouse liver microsome: 82.50%
[4]
  solubility at 24 h: 134 µg/mL (≈ 403 µM)
[5]; 0 minute
  Percentage of the compound remaining in plasma: 100.0%
[5]; 37° C., 15 minutes
  Percentage of the compound remaining in plasma: 93.5%
[5]; 37° C., 30 minutes
  Percentage of the compound remaining in plasma: 97.8%
[5]; 37° C., 60 minutes
  Percentage of the compound remaining in plasma: 99.6%
[5]; 37° C., 120 minutes
  Percentage of the compound remaining in plasma: 105.2%
[6]
  stability in plasma: high stability
[7]; 0 minute
  Percentage of the compound remaining in plasma: 100.0%
[7]; 37° C., 15 minutes
  Percentage of the compound remaining in plasma: 104.0%
[7]; 37° C., 30 minutes
  Percentage of the compound remaining in plasma: 107.2%
[7]; 37° C., 60 minutes
  Percentage of the compound remaining in plasma: 106.5%
[7]; 37° C., 120 minutes
  Percentage of the compound remaining in plasma: 101.8%
[8]; with coenzyme
  Percentage of the compound remaining in human liver microsome: 91.44%
[8]; without coenzyme
  Percentage of the compound remaining in human liver microsome: 96.71%
[9]; 0 minute
  Percentage of the compound remaining in plasma: 100.0%
[9]; 37° C., 15 minutes
  Percentage of the compound remaining in plasma: 94.0%
[9]; 37° C., 30 minutes
  Percentage of the compound remaining in plasma: 98.6%
[9]; 37° C., 60 minutes
  Percentage of the compound remaining in plasma: 95.0%
[9]; 37° C., 120 minutes
  Percentage of the compound remaining in plasma: 91.6%
[10]; with coenzyme
  Percentage of the compound remaining in dog liver microsome: 28.07%
[10]; without coenzyme
  Percentage of the compound remaining in dog liver microsome: 83.78%
[11]; 0 minute
  Percentage of the compound remaining in plasma: 100.0%
[11]; 37° C., 15 minutes
  Percentage of the compound remaining in plasma: 98.5%
[11]; 37° C., 30 minutes
  Percentage of the compound remaining in plasma: 98.8%
[11]; 37° C., 60 minutes
  Percentage of the compound remaining in plasma: 96.1%
[11]; 37° C., 120 minutes
  Percentage of the compound remaining in plasma: 89.3%
[12]
  stability in microsome: high stability
